Patent publication US7786152B2, “Compound” (priority 2002, dated 2010)

biological target: T1, Human 11βHSD1 (Homo sapiens, UniProt P28845); experiment: 11β HSD1 cortisol radioimmunoassay (RIA) with human hepatic microsomes; assay type: biochemical; details: read-out: % inhibition of Human 11βHSD1 @ 10 μM
T1 construct: the enzyme source, native hepatic enzyme compared to recombinant enzyme; tissue XenoTech H0610/Lot 0210078; host or cells: human hepatic microsomes
Method: Biological Assay Development Using Human 11β-Hydroxysteroid Dehydrogenase Type 1. Standard Operating Procedure for the 11β-Hydroxysteroid Dehydrogenase Type 1 Cortisol Radioimmunoassay. 11β HSD1 Cortisol RIA
Enzyme assay buffer: 30 mM Tris-HCL, pH 7.2 containing 1 mM EDTA
Antibody binding buffer: 50 mM Tris-HCL, pH 8, containing 0.1 M NaCl and 0.1% gelatin
Dilute into assay buffer 1 in 25. Also dilute neat DMSO 1 in 25 into assay buffer for controls.
Dilute this 1 in 50 into assay buffer.
Prepare NADPH as a 1.8 mg/ml solution in assay buffer.
Mix these 3 solutions 1:1:1 to make a solution of sufficient volume for 25 μl additions to each sample. Add 0.5 μCi tritiated cortisone per 25 μl and mix the solution well.
Microsome preparation: Dilute stock 20 mg/ml solution 1 in 100 with assay buffer.
Dextran coated charcoal preparation: Make a 20 mg/ml solution in antibody binding buffer and chill on ice.
Enzyme assay: To a u-bottom polypropylene 96 well plate add:
25 μl compound dilution or diluted DMSO to controls, NSB's and blanks
10 μl 1 mM GA in DMSO (enzyme stop solution) to blanks
25 μl substrate mixture to all samples
50 μl diluted microsomes to all samples
Incubate plate for 30 min at 37° C. shaking
Add 10 μl enzyme stop solution to all wells except the blanks
Add 100 μl antibody solution to all wells except the NSB's, add antibody binding buffer to these wells
Incubate at 37° C. for 1 h
Chill plate on ice for 15 min
Add 50 μl/well charcoal solution and mix with an 8-channel pipette (4-5 aspirations)
Centrifuge at 4° C., 2000×g for 15 min
Transfer 100 μl supernatant into an Optiplate, also add 25 μl substrate mixture to 2 empty wells to indicate counting efficiency
Add 200 μl Microscint-40 to all wells and count on a Topcount
The 11β HSD1 enzyme assay was carried out following the standard operating procedure described above in u-bottom polypropylene 96 well plates or 1.5 ml Eppendorf tubes as indicated for each experiment. Subsequent to stopping the enzyme reaction, 100 μl antibody prepared in buffer 3 unless otherwise indicated was added to test samples and 100 μl buffer 3 was added to the NSB samples. The samples were incubated for 1 hour at 37° C. and the chilled on ice for 15 mins. Dextran coated charcoal (50 μl/sample) prepared to the indicated concentration in buffer 3 was added and the samples were mixed (vortex for tubes and aspiration 5 times with an 8-channel pipette for 96 well plates) and chilled for a further 10 min. The samples were centrifuged at 2000×g for 15 min at 4° C. to pellet the charcoal. Aliquots of the supernatant (100 μl) were transferred to an Optiplate and counted on the Topcount in 150-200 μl Microscint 40. In some experiments, aliquots of supernatant were transferred to scintillation vials and counted on the Tricarb LSC in 5 ml Ultima Gold scintillant.
Substrate saturation was examined. The enzyme assay was carried out exactly described in the methods section, in Buffer 3 with 10 μg/well microsomal protein and with [cold cortisone] as indicated. [3H]-cortisone was 0.5 μCi/sample throughout. The reaction was stopped after 30 min by the addition of 10 μl stop solution. The RIA was carried out exactly as indicated in the methods section.
It is reported that DMSO can both increase and reduce microsomal enzyme activity, depending on the concentration, presumably due to effects on the microsomal membranes.

T1 sequence (P28845 whole entry): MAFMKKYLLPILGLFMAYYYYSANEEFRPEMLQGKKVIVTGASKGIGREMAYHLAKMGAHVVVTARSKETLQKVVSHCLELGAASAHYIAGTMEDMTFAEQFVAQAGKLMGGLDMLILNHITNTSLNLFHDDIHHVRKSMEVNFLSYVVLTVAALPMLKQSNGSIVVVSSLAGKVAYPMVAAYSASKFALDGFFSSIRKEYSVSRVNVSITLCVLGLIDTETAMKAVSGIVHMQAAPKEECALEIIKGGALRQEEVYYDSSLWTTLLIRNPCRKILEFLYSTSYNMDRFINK

Question: For `Cc1nc2cc(NS(=O)(=O)c3ccc4c(c3)CN(C(=O)C(F)(F)F)CC4)ccc2s1` [compound 581], which inhibition at 10 µM is on record?
Answer: 29%

Question: Which inhibition at 10 µM does the source give for `Cc1nc2cc(NS(=O)(=O)c3cccc4ccccc34)ccc2s1` [compound 553] here?
Answer: 48%

Question: For `COc1ccc(S(=O)(=O)Nc2ccc3sc(C)nc3c2)cc1` [compound 424], which inhibition at 10 µM is on record?
Answer: 47%

Question: For `Cc1nc2cc(NS(=O)(=O)c3c(C(C)C)cc(C(C)C)cc3C(C)C)ccc2s1` [compound 703], which inhibition at 10 µM is on record?
Answer: 37%

Question: How did the inhibition at 10 µM turn out when `CCCc1ccc(S(=O)(=O)Nc2ccc3sc(C)nc3c2)cc1` [compound 421] was run?
Answer: 42%

Question: `Cc1nc2cc(NS(=O)(=O)c3ccccc3C#N)ccc2s1` [compound 583] was tested. Which inhibition at 10 µM did it give?
Answer: 28%

Question: With `Cc1nc2cc(NS(=O)(=O)c3c(C)cccc3Cl)ccc2s1` [compound 425] as the molecule, how does the inhibition at 10 µM read?
Answer: 41%

Question: Which inhibition at 10 µM does the source give for `Cc1nc2cc(NS(=O)(=O)c3ccc(Oc4ccccc4)cc3)ccc2s1` [compound 585] here?
Answer: 58%

Question: With `Cc1nc2cc(NS(=O)(=O)c3ccc(Cl)cc3Cl)ccc2s1` [compound 412] as the molecule, how does the inhibition at 10 µM read?
Answer: 36%

Question: How did the inhibition at 10 µM turn out when `Cc1nc2cc(NS(=O)(=O)c3ccc(C(C)(C)C)cc3)ccc2s1` [compound 709] was run?
Answer: 49%

Question: `Cc1nc2cc(NS(=O)(=O)c3cccc(Cl)c3C)ccc2s1` [compound 413] was tested. Which inhibition at 10 µM did it give?
Answer: 29%

Question: `Cc1nc2cc(NS(=O)(=O)c3cccc4cccnc34)ccc2s1` [compound 552] was tested. Which inhibition at 10 µM did it give?
Answer: 45%

Question: How did the inhibition at 10 µM turn out when `COc1ccc(Cl)cc1S(=O)(=O)Nc1ccc2sc(C)nc2c1` [compound 582] was run?
Answer: 34%

Question: For `COc1cc(C)ccc1S(=O)(=O)Nc1ccc2sc(C)nc2c1` [compound 584], which inhibition at 10 µM is on record?
Answer: 20%

Question: With `CC(=O)c1ccccc1S(=O)(=O)Nc1ccc2sc(C)nc2c1` [compound 701] as the molecule, how does the inhibition at 10 µM read?
Answer: 41%

Question: Which inhibition at 10 µM does the source give for `Cc1nc2cc(NS(=O)(=O)c3cc(Cl)ccc3Cl)ccc2s1` [compound 580] here?
Answer: 30%

Question: How did the inhibition at 10 µM turn out when `Cc1nc2cc(NS(=O)(=O)c3ccc(C(C)C)cc3)ccc2s1` [compound 704] was run?
Answer: 44%

Question: How did the inhibition at 10 µM turn out when `Cc1nc2cc(NS(=O)(=O)c3ccc(-c4ccccc4)cc3)ccc2s1` [compound 521] was run?
Answer: 60%

Question: Which inhibition at 10 µM does the source give for `Cc1nc2cc(NS(=O)(=O)c3cccc4c(N(C)C)cccc34)ccc2s1` [compound 554] here?
Answer: 53%

Question: With `Cc1nc2cc(NS(=O)(=O)c3c(Cl)cc(Cl)cc3Cl)ccc2s1` [compound 522] as the molecule, how does the inhibition at 10 µM read?
Answer: 47%

Question: For `CCSc1nc2ccc(NS(=O)(=O)c3cccc(Cl)c3C)cc2s1` [compound 751], which inhibition at 10 µM is on record?
Answer: 22%

Question: How did the inhibition at 10 µM turn out when `CCN(c1ccc2sc(C)nc2c1)S(=O)(=O)c1cccc(Cl)c1C` [compound 470] was run?
Answer: 54%

Question: Which inhibition at 10 µM does the source give for `Cc1nc2cc(N(C)S(=O)(=O)c3cccc(Cl)c3C)ccc2s1` [compound 469] here?
Answer: 66%

Question: How did the inhibition at 10 µM turn out when `COC(=O)c1ccccc1S(=O)(=O)Nc1ccc2sc(C)nc2c1` [compound 705] was run?
Answer: 28%

Question: `Cc1nc2cc(NS(=O)(=O)c3ccc(Br)cc3C)ccc2s1` [compound 523] was tested. Which inhibition at 10 µM did it give?
Answer: 61%

Question: Which inhibition at 10 µM does the source give for `Cc1nc2cc(NS(=O)(=O)c3ccc(Br)cc3)ccc2s1` [compound 519] here?
Answer: 48%

Question: Which inhibition at 10 µM does the source give for `Cc1nc2cc(NS(=O)(=O)c3c(C)c(C)c(C)c(C)c3C)ccc2s1` [compound 710] here?
Answer: 35%

Question: `COc1c(C)c(C)c(S(=O)(=O)Nc2ccc3sc(C)nc3c2)c(C)c1C` [compound 708] was tested. Which inhibition at 10 µM did it give?
Answer: 21%
